Read-outs that look alike come from different tables or passages of the source.
How the values were obtained:
[1] = Determination of log P values by HPLC on reversed-phase column (C18); assay type: physicochemical
Method: Unless indicated otherwise, the following method was used to determine the log P values and masses: The determination of the given log P values was carried out in accordance with EEC Directive 79/831 Annex V.A8 by HPLC (High Performance Liquid Chromatography) on a reversed-phase column (C18). […] Mass detection is effected by means of an Agilend MSD system.

[2] = test system: Cooperia curticei; assay: Cooperia curticei test (COOPCU); assay type: in vivo; conditions: 20 ppm, nematode larvae, after 5 days
Method: Cooperia curticei test (COOPCU)
(§1) Solvent: dimethyl sulphoxide
(§2) To produce a suitable preparation of active compound, 10 mg of active compound are mixed with 0.5 ml of dimethyl sulphoxide and the concentrate is diluted with “Ringer's solution” to the desired concentration.
Vessels containing the active compound preparation of the desired concentration are populated with about 40 nematode larvae (Cooperia curticei).
(§3) After 5 days, the kill in % is determined. 100% means that all the larvae has been killed; 0% means that none of the larvae has been killed.

[3] = test system: Haemonchus contortus; assay: Haemonchus contortus test (HAEMCO); assay type: in vivo; conditions: 20 ppm, larvae of the red stomach worm, after 5 days
Method: Haemonchus contortus—test (HAEMCO)
as §1, §2
Vessels containing the active compound preparation of the desired concentration are populated with about 40 larvae of the red stomach worm (Haemonchus contortus).
as §3

[4] = test system: Phaedon cochleariae; assay: Phaedon cochleariae spray test (PHAECO); assay type: in vivo; conditions: 500 g/ha, Chinese cabbage leaf discs, after 7 days
Method: Phaedon cochleariae—spray test (PHAECO) • Solvent: 78.0 parts by weight of acetone 1.5 parts by weight of dimethylformamide • Emulsifier: alkylaryl polyglycol ether
(§4) To produce a suitable preparation of active compound, 1 part by weight of active compound is dissolved using the stated parts by weight of solvent and made up with water containing an emulsifier concentration of 1000 ppm until the desired concentration is attained. To produce further test concentrations, the preparation is diluted with emulsifier-containing water.
After 7 days, the efficacy in % is determined. 100% means that all the beetle larvae have been killed; 0% means that no beetle larvae have been killed.

[5] = test system: Tetranychus urticae; assay: Tetranychus urticae spray test, OP-resistant (TETRUR); assay type: in vivo; conditions: 500 g/ha, bean leaf discs, after 6 days
Method: Tetranychus urticae—spray test, OP-resistant (TETRUR) • Solvent: 78.0 parts by weight of acetone 1.5 parts by weight of dimethylformamide • Emulsifier: alkylaryl polyglycol ether
as §4
Discs of bean leaves (Phaseolus vulgaris) infested by all stages of the greenhouse red spider mite (Tetranychus urticae) are sprayed with an active compound formulation of the desired concentration.
After 6 days, the efficacy in % is determined. 100% means that all the spider mites have been killed; 0% means that no spider mites have been killed.

[6] = test system: Meloidogyne incognita; assay: Meloidogyne incognita test (MELGIN); assay type: in vivo; conditions: 20 ppm, lettuce, after 14 days
Method: Meloidogyne incognita test (MELGIN)
Solvent: 125.0 parts by weight of acetone
To produce a suitable active compound formulation, 1 part by weight of active compound is mixed with the stated amount of solvent and the concentrate is diluted with water to the desired concentration.
Vessels are filled with sand, active compound solution, an egg/larvae suspension of the southern root-knot nematode (Meloidogyne incognita) and lettuce seeds. The lettuce seeds germinate and the plants develop. The galls develop on the roots.
After 14 days, the nematicidal efficacy in % is determined by the formation of galls. 100% means that no galls were found; 0% means that the number of galls on the treated plants corresponds to the untreated control.

[7] = test system: Boophilus microplus; assay: Boophilus microplus injection test (BOOPMI inj); assay type: in vivo; conditions: 20 μg/animal, injection into engorged adult female cattle ticks, assessed after 7 days
Method: Boophilus microplus—injection test (BOOPMI inj)
as §1
To produce a suitable preparation of active compound, 10 mg of active compound are mixed with 0.5 ml of solvent and the concentrate is diluted with solvent to the desired concentration.
1 μl of the active compound solution is injected into the abdomen of 5 engorged adult female cattle ticks (Boophilus microplus). The animals are transferred into dishes and kept in a climate-controlled room.
Efficacy is assessed after 7 days by laying of fertile eggs. Eggs which are not visibly fertile are stored in a climate-controlled cabinet until the larvae hatch after about 42 days. An efficacy of 100% means that none of the ticks has laid any fertile eggs; 0% means that all the eggs are fertile.

[8] = formic acid method, read-out: log P(HCOOH)
[9] = neutral, read-out: log P(neutral)

Compound | chromatographic logP [1, 8] | chromatographic logP [1, 9] | efficacy (kill in %) [3] [%] | other results
Nc1cnn(-c2c(F)cc(Cl)cc2F)c1Cl [5-Chloro-1-(4-chloro-2,6-difluorophenyl)-1H-pyrazole-4-amine] | 2.08 | 2.14 |  | 
O=C(Nc1cnn(-c2ncccc2Cl)c1)c1ccccc1C(F)(F)F [I-1-24] |  |  | 100 | efficacy (kill in %) [2]: 90%
O=C(Nc1cnn(-c2ncccc2Cl)c1)c1ccccc1I [I-1-22] |  |  | 100 | 
O=C(Nc1cn[nH]c1)c1ccccc1C(F)(F)F [N-(1H-Pyrazol-4-yl)-2-(trifluoromethyl)benzamide] | 1.21 | 1.22 |  | 
O=[N+]([O-])c1cnn(-c2c(F)cc(Cl)cc2F)c1 [1-(4-Chloro-2,6-difluorophenyl)-4-nitro-1H-pyrazole] | 2.74 | 2.72 |  | 
O=C(Nc1cnn(-c2c(F)cccc2F)c1)c1cccnc1C(F)(F)F [I-1-58] |  |  | 80 | 
O=C(Nc1cnn(-c2c(F)cccc2F)c1)c1ccccc1Cl [I-1-41] |  |  |  | efficacy (beetle larvae killed) [4]: 100%
O=C(Nc1cnn(-c2ncccc2Cl)c1)c1c(F)cccc1C(F)(F)F [I-1-25] |  |  | 100 | efficacy (kill in %) [2]: 90%
O=C(Nc1cnn(-c2c(F)cc(Cl)cc2F)c1Cl)c1ccccc1I [I-1-44] |  |  |  | efficacy (spider mites killed) [5]: 95%
O=C(Nc1cnn(-c2ncccc2F)c1)c1ccccc1Br [I-1-16] |  |  |  | nematicidal efficacy (formation of galls) [6]: 90%
O=C(O)c1cnn(-c2c(F)cccc2F)c1C(F)(F)F [1-(2,6-Difluorophenyl)-5-(trifluoromethyl)-1H-pyrazole-4-carboxylic acid] | 2.1 | 0.13 |  | 
O=C(Nc1cnn(-c2c(F)cccc2C(F)(F)F)c1)c1ccccc1C(F)(F)F [I-1-53] |  |  |  | efficacy (kill in %) [2]: 100%
O=C(Nc1cnn(-c2c(F)cccc2F)c1)c1ccccc1Br [I-1-40] |  |  | 90 | efficacy (kill in %) [2]: 80%
N#Cc1cccc(F)c1-n1cc(NC(=O)c2ccccc2C(F)(F)F)cn1 [I-1-52, N-[1-(2-Cyano-6-fluorophenyl)-1H-pyrazol-4-yl]-2-(trifluoromethyl)benzamide] | 2.37 | 2.33 |  | 
O=C(Nc1cnn(-c2ncccc2F)c1)c1ccccc1Cl [I-1-17] |  |  |  | nematicidal efficacy (formation of galls) [6]: 100%
O=C(Nc1cnn(-c2ccccc2F)c1)c1ccccc1C(F)(F)F [I-1-8] |  |  | 100 | efficacy (kill in %) [2]: 100%; nematicidal efficacy (formation of galls) [6]: 90%
O=C(Nc1cnn(-c2ncccc2Br)c1)c1c(F)cccc1F [I-1-31] |  |  |  | efficacy (beetle larvae killed) [4]: 100%
O=C(Nc1cnn(-c2cc(F)cnc2F)c1)c1ccccc1I [I-1-33] |  |  |  | efficacy (kill in %) [2]: 80%
O=C(Nc1cnn(-c2ncccc2Cl)c1)c1ccccc1Br [I-1-26] |  |  | 100 | 

Compound | chromatographic logP [1, 8] | chromatographic logP [1, 9] | efficacy (kill in %) [3] [%] | other results
Fc1cc(Cl)cc(F)c1-n1cccn1 [1-(4-chloro-2,6-difluorophenyl)pyrazole] | 2.36 | 2.34 |  | 
O=C(Nc1cnn(-c2c(F)cccc2Cl)c1)c1ccccc1C(F)(F)F [I-1-60] |  |  |  | nematicidal efficacy (formation of galls) [6]: 90%
CCOC(=O)c1cnn(-c2c(F)cccc2F)c1C(F)(F)F [Ethyl 1-(2,6-difluorophenyl)-5-(trifluoromethyl)-1H-pyrazole-4-carboxylate] | 3.56 | 3.52 |  | 
O=C(Nc1cnn(-c2ccccc2F)c1)c1ccccc1I [I-1-7] |  |  | 90 | efficacy (beetle larvae killed) [4]: 83%; efficacy (kill in %) [2]: 90%; nematicidal efficacy (formation of galls) [6]: 90%
O=C(Nc1cnn(-c2cnc(F)c(F)c2)c1)c1c(F)cccc1C(F)(F)F [I-1-36] |  |  |  | efficacy (kill in %) [2]: 100%
CC(C)(C)OC(=O)Nc1cnn(-c2c(F)cccc2F)c1C(F)(F)F [tert-Butyl [1-(2,6-difluorophenyl)-5-(trifluoromethyl)-1H-pyrazol-4-yl]carbamate] | 3.61 | 3.58 |  | 
O=C(Nc1cnn(-c2ncccc2F)c1)c1ccccc1C(F)(F)F [I-1-10] |  |  | 90 | efficacy (laying of fertile eggs) [7]: 100%; nematicidal efficacy (formation of galls) [6]: 90%
O=C(Nc1cnn(-c2ncccc2Br)c1)c1ccccc1C(F)(F)F [I-1-29] |  |  |  | efficacy (kill in %) [2]: 80%
O=C(Nc1cnn(-c2ncccc2Br)c1)c1ccccc1Cl [I-1-30] |  |  |  | efficacy (beetle larvae killed) [4]: 83%
O=C(Nc1cnn(-c2c(F)cccc2F)c1)c1c(F)cccc1C(F)(F)F [I-1-42] |  |  | 100 | efficacy (kill in %) [2]: 80%
O=C(Nc1cnn(-c2c(F)cccc2F)c1)c1ccccc1C(F)(F)F [I-1-9, N-[1-(2,6-Difluorophenyl)-1H-pyrazol-4-yl]-2-(trifluoromethyl)benzamide] | 2.45 | 2.36 | 100 | efficacy (kill in %) [2]: 100%; nematicidal efficacy (formation of galls) [6]: 100%
O=C(Nc1cnn(-c2ncccc2Cl)c1)c1ccccc1Cl [I-1-23] |  |  | 90 | efficacy (beetle larvae killed) [4]: 100%; nematicidal efficacy (formation of galls) [6]: 90%
Nc1cnn(-c2c(F)cccc2F)c1C(F)(F)F [1-(2,6-Difluorophenyl)-5-(trifluoromethyl)-1H-pyrazole-4-amine] | 2.14 | 2.13 |  | 
Nc1cnn(-c2c(F)cccc2F)c1 [1-(2,6-Difluorophenyl)-1H-pyrazole-4-amine] | 0.09 | 0.89 |  | 
NNc1c(F)cc(Cl)cc1F [(4-chloro-2,6-difluorophenyl)hydrazine] | 0.15 | 1.44 |  | 
Nc1cnn(-c2c(F)cc(F)cc2F)c1C(F)(F)F [5-(Trifluoromethyl)-1-(2,4,6-trifluorophenyl)-1H-pyrazole-4-amine] | 2.35 | 2.35 |  | 
N#Cc1cccc(C#N)c1-n1cc(NC(=O)c2ccccc2C(F)(F)F)cn1 [I-1-68] |  |  |  | nematicidal efficacy (formation of galls) [6]: 100%
O=C(Nc1cnn(-c2ncccc2F)c1)c1c(F)cccc1C(F)(F)F [I-1-18] |  |  | 80 | 
